Test results as given in patent US9233976B2, “Berbamine derivatives” (CITY OF HOPE, priority 2009, dated 2016).
Each block holds one compound with its values, some of them ahead of it.

How the values were obtained:
[1] = tested on: ovarian cancer OVCAR5 cells; test: MTS cell viability assay in OVCAR5 cells; assay type: cell-based; conditions: Homo sapiens, OVCAR-5, OVCAR5, 48 h
Protocol: (§1) Each type of cells (5,000 or 10,000 cells/well) were treated with different concentration (0.1 μM to 20 μM in 1% DMSO of berbamine and BA #3 respectively for 48 h. Then, MTS assay for cell viability were carried out to determine the IC50 values. Four samples were tested for each test compound at each concentration for each type of cells, and the averaged data were shown in Table 4 and FIGS. 12-13.

Bcl-xL = test: Western blot of Bcl-xL protein; assay type: cell-based; conditions: 5 μM, 24 h
Protocol: (§2) To determine whether BA #3 down-regulates Stat3 downstream anti-apototic proteins Mcl-1 and Bcl-xL, cells were treated with BA #3 in a dose-dependent manner for 24 h. Western blots were performed with specific antibodies to Mcl-1 and Bcl-xL.

Jak2 kinase = Jak2 kinase (Homo sapiens, UniProt O60674); test: In vitro Jak2 kinase assay with peptide substrate; assay type: biochemical; conditions: activated recombinant protein with peptide substrate and ATP
Description: (§3) To determine whether BA #3 inhibits activities of Src kinase, Jak2 kinase, Jak1 kinase and Tyk2 kinase in vitro, activated recombinant proteins were mixed with peptide substrates and ATP in the absence or the presence of BA #3. […] However, BA #3 reduced Jak2 autophosphorylation kinase activity at Tyr1007/1008 sites in vitro in the reaction of mixture of non-activated recombinant Jak2 protein and ATP in the absence of substrates (FIG. 19).

[2] = tested on: Human normal dermal fibroblast (NHDF) cells; test: Cell viability in normal dermal fibroblasts; assay type: cell-based
Jak2/Stat3 signaling [3] = test: Western blot of Jak2/Stat3 signaling in erythroleukemia HEL cells; assay type: cell-based; conditions: 0-10 μM, 4 hour
Protocol: (§4) To determine whether BA #3 block Jak2/Stat3 or Src/Stat3 signaling pathway, A2058 melanoma (A and B) and erythroleukemia HEL cells were treated with BA #3 in a dose- or time-dependent manner. Western blots were performed with specific antibodies to p-Jak2, p-Src, p-Stat3, p-AKT, Jak2, Src, Stat3 and AKT.

[4] = tested on: human acute lymphocytic leukemia (Reh) cells; test: MTS cell viability assay in Reh cells; assay type: cell-based; conditions: 48 h
Protocol: as §1

Jak1 kinase = Jak1 kinase (Homo sapiens, UniProt P23458); test: In vitro Jak1 kinase assay with peptide substrate; assay type: biochemical; conditions: activated recombinant protein with peptide substrate and ATP
Description: as §3

melanoma A375 cells = test: MTS cell viability assay in A375 cells; assay type: cell-based; conditions: Homo sapiens, A-375, A375, 48 h
Protocol: as §1

[5] = tested on: human erythroleukemia HEL (homozygous JAK2 V617F mutation) cells; test: MTS cell viability assay in HEL cells; assay type: cell-based; conditions: HEL Jak2 V617 mutation, 48 h
Protocol: HEL Jak2 V617 mutation cells (10,000 cells/well) were treated with different concentration (0.1 μM to 20 μM in 1% DMSO of berbamine, BA #3, and BA #10 respectively for 48 h. Then, MTS assay for cell viability were carried out to determine the IC50 values. Four samples were tested for each test compound at each concentration, and the averaged data were shown in Table 3 and FIGS. 10-11.

[6] = tested on: Imatinib-resistant leukemia (K562/ADR) cells; test: Cell viability in imatinib-resistant leukemia cells; assay type: cell-based
Protocol: Imatinib-resistant leukemia (K562/ADR) cells (5,000 cells/well) were treated with different concentrations (0.6-40 μM in DMSO) of BA #1, BA #3 and BA #4 respectively for 48 hours and cell viability was measured.

[7] = Maximum tolerated dose (MTD) study, body weight; assay type: in vivo; conditions: mice, oral, 50 mg/kg and 100 mg/kg every day for 5 days
Protocol: Three test groups of mice (four mice per group) were orally administrated with vehicle only, 50 mg/kg BA #3 and 100 mg/kg BA #3 respectively every day for 5 days. Mice were weighed every day. Two sets of experiments were carried out (FIGS. 22(A) and (B)).

[8] = tested on: pancreatic cancer (PANC-1) cells; test: MTS cell viability assay in PANC-1 cells; assay type: cell-based; conditions: Homo sapiens, PANC-1, 48 h
Protocol: as §1

[9] = tested on: human acute lymphoblastic leukemia (Molt4) cells; test: MTS cell viability assay in Molt4 cells; assay type: cell-based; conditions: MOLT-4, Molt4, 48 h
Protocol: as §1

[10] = tested on: DU145 prostate cancer cell line; test: MTS cell viability assay in DU145 cells; assay type: cell-based; conditions: DU145, 48 h
Protocol: (§5) IC50 of values of berbamine derivatives were determined in cancer cell lines DU145 and A2058 respectively. DU145 and A2058 cells (5,000 cells/well) were treated with berbamine derivatives in a dose-dependent manner (0.1 to 20 μM in 1% DMSO for 48 h. Then, MTS assay for cell viability were carried out to determine the IC50 values. Four samples were tested for each berbamine derivatives at each concentration in each cell line, and the averaged data were shown in Table 1 and FIGS. 1-8.

melanoma G361 cells = test: MTS cell viability assay in G361 cells; assay type: cell-based; conditions: Homo sapiens, G-361, G361, 48 h
Protocol: as §1

Jak2/Stat3 signaling [11] = test: Western blot of Jak2/Stat3 signaling in A2058 melanoma cells; assay type: cell-based; conditions: 0-10 μM for 4 hour or 10 μM for 0-24 hour
Protocol: as §4

melanoma SK-MEL-28 cells = test: MTS cell viability assay in SK-MEL-28 cells; assay type: cell-based; conditions: Homo sapiens, SK-MEL-28, 48 h
Protocol: as §1

[12] = tested on: A2058 human melanoma cell line; test: MTS cell viability assay in A2058 cells; assay type: cell-based; conditions: A2058, 48 h
Protocol: as §5

Mcl-1 = test: Western blot of Mcl-1 protein; assay type: cell-based; conditions: 5 μM, 24 h
Protocol: as §2

[13] = target: non-activated recombinant Jak2 protein (autophosphorylation at Tyr1007/1008) (Homo sapiens, UniProt O60674); test: In vitro Jak2 autophosphorylation kinase assay; assay type: biochemical; conditions: non-activated recombinant Jak2 and ATP, no substrate, densitometry; read-out: IC50 for inhibition of autophosphorylation kinase activity
Description: as §3, with “FIG. 19. In vitro Jak2 autophosphorylation kinase assay of BA #3. A) Autophosphorylation of Jak2 at Tyr1007/1008 was required for its catalytic activity, non-activated recombinant Jak2 protein was mixed with ATP in the absence or presence of BA #3; B) inhibitory activity of Jak2 autophosphorylation based on the densitometry of FIG. 19(A). To” for “To”

melanoma SK-MEL-5 cells = test: MTS cell viability assay in SK-MEL-5 cells; assay type: cell-based; conditions: Homo sapiens, SK-MEL-5, 48 h
Protocol: as §1

[14] = tested on: ovarian cancer SKOV3 cells; test: MTS cell viability assay in SKOV3 cells; assay type: cell-based; conditions: Homo sapiens, SK-OV-3, SKOV3, 48 h
Protocol: as §1

Src kinase = Src kinase (Homo sapiens, UniProt P12931); test: In vitro Src kinase assay with peptide substrate; assay type: biochemical; conditions: activated recombinant protein with peptide substrate and ATP
Description: as §3

Tyk2 kinase = Tyk2 kinase (Homo sapiens, UniProt P29597); test: In vitro Tyk2 kinase assay with peptide substrate; assay type: biochemical; conditions: activated recombinant protein with peptide substrate and ATP
Description: as §3

[15] = tested on: multiple myeloma (U266) cells; test: MTS cell viability assay in U266 cells; assay type: cell-based; conditions: Homo sapiens, U-266, U266, 48 h
Protocol: as §1

A2058 cells = test: Annexin V-FITC apoptosis assay; assay type: cell-based; conditions: 0-10 μM, 48 hours
Protocol: A2058 cells were treated with BA #3 in a dose dependent manner (0-10 μM) for 48 hours.

cancer cell lines = test: IC50 in cancer cell lines tested (summary statement); assay type: cell-based; conditions: summary over cell lines tested
Description: For example, berbamine derivatives (e.g. BA #3) show significant (at least 10-fold) improvement in activity over berbamine in cancer cell lines tested (e.g. K562/ADR). Berbamine derivatives (e.g. BA #3) also show inhibition of Jak2/Stat3 signaling in cancer cell lines (e.g. A2058, erythroleukemia HEL cells), and show down-regulation of Mcl-1 and Bcl-xL proteins.

Chain of Jak1 kinase (P23458 whole entry): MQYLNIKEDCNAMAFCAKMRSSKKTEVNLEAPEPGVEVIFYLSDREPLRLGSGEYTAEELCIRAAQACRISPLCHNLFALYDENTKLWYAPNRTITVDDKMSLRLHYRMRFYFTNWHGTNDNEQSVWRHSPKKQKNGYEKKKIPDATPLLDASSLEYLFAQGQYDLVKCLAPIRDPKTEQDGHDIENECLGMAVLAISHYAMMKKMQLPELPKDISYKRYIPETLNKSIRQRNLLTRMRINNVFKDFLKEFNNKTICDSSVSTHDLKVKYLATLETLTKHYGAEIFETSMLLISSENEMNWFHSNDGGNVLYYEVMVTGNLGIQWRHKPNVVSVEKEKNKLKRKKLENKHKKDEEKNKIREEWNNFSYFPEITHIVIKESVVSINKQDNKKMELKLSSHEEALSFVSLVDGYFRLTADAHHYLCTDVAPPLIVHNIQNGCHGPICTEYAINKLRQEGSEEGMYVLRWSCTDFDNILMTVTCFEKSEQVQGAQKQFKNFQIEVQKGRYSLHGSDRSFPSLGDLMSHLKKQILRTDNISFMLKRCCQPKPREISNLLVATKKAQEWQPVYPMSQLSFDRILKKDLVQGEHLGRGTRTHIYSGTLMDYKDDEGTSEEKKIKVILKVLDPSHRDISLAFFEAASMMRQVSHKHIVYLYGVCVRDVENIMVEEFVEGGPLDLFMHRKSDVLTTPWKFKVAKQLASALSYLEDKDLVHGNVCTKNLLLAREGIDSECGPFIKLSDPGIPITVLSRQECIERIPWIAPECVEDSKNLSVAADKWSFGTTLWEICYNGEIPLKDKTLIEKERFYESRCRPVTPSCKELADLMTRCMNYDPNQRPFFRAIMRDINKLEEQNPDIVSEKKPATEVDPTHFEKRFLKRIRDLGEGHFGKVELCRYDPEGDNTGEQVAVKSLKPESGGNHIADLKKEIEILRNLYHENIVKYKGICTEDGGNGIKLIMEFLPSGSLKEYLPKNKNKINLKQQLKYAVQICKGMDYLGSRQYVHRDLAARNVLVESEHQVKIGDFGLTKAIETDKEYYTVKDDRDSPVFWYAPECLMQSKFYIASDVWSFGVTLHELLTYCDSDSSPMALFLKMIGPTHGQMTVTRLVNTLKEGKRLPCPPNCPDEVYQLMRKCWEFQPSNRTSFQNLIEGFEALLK
Chain of Tyk2 kinase (P29597 whole entry): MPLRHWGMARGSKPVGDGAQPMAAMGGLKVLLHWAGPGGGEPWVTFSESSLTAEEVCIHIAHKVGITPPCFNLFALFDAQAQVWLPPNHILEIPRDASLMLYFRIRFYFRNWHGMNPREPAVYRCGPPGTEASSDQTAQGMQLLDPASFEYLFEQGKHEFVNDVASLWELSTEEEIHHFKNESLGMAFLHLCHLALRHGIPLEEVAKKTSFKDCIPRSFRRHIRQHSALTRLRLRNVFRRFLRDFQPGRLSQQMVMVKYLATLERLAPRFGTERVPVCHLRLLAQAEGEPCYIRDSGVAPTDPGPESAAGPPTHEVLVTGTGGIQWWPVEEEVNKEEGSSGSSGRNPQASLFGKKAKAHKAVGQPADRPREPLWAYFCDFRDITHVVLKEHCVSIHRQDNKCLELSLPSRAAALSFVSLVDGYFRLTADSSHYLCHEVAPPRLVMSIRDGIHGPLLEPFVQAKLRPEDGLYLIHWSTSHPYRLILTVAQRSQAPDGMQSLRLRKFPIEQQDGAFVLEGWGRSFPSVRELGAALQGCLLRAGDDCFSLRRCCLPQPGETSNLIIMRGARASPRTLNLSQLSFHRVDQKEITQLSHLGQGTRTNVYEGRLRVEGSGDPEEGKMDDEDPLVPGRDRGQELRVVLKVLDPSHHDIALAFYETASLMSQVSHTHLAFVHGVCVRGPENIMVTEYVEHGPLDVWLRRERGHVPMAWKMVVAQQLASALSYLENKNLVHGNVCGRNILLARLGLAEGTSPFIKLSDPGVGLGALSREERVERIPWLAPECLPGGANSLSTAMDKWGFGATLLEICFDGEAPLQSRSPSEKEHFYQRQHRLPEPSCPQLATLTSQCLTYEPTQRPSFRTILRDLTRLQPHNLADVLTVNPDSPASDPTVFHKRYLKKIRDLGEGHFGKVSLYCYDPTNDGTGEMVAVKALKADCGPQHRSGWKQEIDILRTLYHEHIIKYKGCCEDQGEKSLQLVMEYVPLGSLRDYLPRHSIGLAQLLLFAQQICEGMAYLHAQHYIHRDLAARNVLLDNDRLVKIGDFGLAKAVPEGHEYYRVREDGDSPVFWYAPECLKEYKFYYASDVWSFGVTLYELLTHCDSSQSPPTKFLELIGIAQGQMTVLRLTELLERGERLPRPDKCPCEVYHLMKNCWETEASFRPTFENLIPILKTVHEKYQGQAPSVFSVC
Chain of non-activated recombinant Jak2 protein (autophosphorylation at Tyr1007/1008) (O60674 whole entry): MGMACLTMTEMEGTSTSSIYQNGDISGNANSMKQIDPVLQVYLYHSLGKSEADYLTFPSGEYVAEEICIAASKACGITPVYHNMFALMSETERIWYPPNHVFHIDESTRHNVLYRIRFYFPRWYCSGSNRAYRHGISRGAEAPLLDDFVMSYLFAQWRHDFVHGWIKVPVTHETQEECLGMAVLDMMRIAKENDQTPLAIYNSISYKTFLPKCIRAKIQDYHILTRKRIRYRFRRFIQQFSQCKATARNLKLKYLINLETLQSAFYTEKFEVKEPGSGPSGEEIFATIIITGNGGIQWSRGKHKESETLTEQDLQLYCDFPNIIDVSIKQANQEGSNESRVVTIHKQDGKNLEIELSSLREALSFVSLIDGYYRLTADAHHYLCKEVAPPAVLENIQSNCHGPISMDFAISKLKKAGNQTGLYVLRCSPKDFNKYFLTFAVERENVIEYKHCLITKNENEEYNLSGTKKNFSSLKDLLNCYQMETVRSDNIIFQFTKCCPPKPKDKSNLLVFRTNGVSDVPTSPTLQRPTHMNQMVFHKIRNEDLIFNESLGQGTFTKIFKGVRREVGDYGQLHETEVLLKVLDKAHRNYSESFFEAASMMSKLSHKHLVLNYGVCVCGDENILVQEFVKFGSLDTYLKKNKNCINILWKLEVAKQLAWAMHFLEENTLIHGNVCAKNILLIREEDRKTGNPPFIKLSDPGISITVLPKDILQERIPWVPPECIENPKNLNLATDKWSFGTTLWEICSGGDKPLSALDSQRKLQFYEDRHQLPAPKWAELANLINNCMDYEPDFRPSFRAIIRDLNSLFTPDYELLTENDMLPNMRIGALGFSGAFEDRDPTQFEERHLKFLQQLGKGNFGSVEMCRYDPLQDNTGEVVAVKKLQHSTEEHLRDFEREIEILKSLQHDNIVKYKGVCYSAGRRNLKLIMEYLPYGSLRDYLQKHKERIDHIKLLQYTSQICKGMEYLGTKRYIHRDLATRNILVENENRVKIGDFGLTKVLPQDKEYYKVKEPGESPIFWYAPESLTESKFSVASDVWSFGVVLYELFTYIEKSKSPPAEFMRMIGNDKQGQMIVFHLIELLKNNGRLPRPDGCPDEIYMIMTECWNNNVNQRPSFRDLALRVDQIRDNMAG
Chain of Jak2 kinase (O60674 whole entry): as above
Chain of Src kinase (P12931 whole entry): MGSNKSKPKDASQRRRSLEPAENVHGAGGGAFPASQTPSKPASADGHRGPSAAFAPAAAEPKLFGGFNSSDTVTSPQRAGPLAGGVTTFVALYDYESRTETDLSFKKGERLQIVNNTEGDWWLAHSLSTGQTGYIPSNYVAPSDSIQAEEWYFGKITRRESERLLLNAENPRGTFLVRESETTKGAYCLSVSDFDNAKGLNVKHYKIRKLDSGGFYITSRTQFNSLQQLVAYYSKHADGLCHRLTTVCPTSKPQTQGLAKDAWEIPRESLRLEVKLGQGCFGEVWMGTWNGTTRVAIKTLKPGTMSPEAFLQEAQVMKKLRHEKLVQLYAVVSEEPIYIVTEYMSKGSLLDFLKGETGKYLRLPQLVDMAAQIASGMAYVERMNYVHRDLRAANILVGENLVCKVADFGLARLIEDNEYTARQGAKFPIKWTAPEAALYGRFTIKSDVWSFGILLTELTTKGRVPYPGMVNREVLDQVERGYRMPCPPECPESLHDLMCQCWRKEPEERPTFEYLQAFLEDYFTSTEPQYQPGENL

SMILES: COc1cc2c3cc1Oc1c(OC)c(OC)cc4c1[C@@H](Cc1ccc(OCCCN5C(=O)c6ccccc6C5=O)c(c1)Oc1ccc(cc1)C[C@@H]3N(C)CC2)N(C)CC4 [BA #3]
IC50 [1]: 2.8 µM | Bcl-xL protein level (Bcl-xL): down-regulated | inhibition of Jak2 kinase activity (Jak2 kinase): did not inhibit | IC50 ([2]; Homo sapiens, 48 h): 7.5 µM | Jak2/Stat3 signaling (phosphorylations of Jak, Src, Stat3 and AKT) (Jak2/Stat3 signaling [3]): inhibited Jak2/Stat3 signaling | IC50 [4]: 2.9 µM | inhibition of Jak1 kinase activity (Jak1 kinase): did not inhibit | IC50 (melanoma A375 cells): 3.7 µM | IC50 [5]: 3.2 µM | improvement in activity over berbamine [6]: at least 10 fold | IC50 ([6]; Homo sapiens, K562/Adr, 48 h): 1.1 µM | body weight versus vehicle [7]: no significant weight differences | IC50 [8]: 6.4 µM | IC50 [9]: 3.9 µM | IC50 ([10]; Homo sapiens, DU-145, 48 h): 3.4 µM | IC50 (melanoma G361 cells): 3.1 µM | Jak2/Stat3 signaling (phosphorylations of Jak, Src, Stat3 and AKT) (Jak2/Stat3 signaling [11]): inhibited Jak2/Stat3 signaling | IC50 (melanoma SK-MEL-28 cells): 3 µM | IC50 ([12]; Homo sapiens): 2.9 µM | Mcl-1 protein level (Mcl-1): down-regulated | IC50 [13]: 0.69 µM | IC50 (melanoma SK-MEL-5 cells): 3.3 µM | IC50 [14]: 3.9 µM | inhibition of Src kinase activity (Src kinase): did not inhibit | inhibition of Tyk2 kinase activity (Tyk2 kinase): did not inhibit | IC50 [15]: 6.7 µM | apoptosis (Annexin V-FITC) (A2058 cells): induced apoptosis

SMILES: COc1cc2c3cc1Oc1c(OC)c(OC)cc4c1[C@@H](Cc1ccc(OCCCNC(=O)c5cncs5)c(c1)Oc1ccc(cc1)C[C@@H]3N(C)CC2)N(C)CC4 [BA #8]
IC50 [10]: 6.6 µM | IC50 [12]: 7.1 µM

SMILES: COc1cc2c3cc1Oc1c(OC)c(OC)cc4c1[C@@H](Cc1ccc(OCCCNC(=O)c5cncs5)c(c1)Oc1ccc(cc1)C[C@@H]3N(C)CC2)N(C)CC4 [BA #5]
IC50 [10]: 7.9 µM | IC50 [12]: 3.9 µM

SMILES: COc1cc2c3cc1Oc1c(OC)c(OC)cc4c1[C@@H](Cc1ccc(OCCCNC(=O)c5cncs5)c(c1)Oc1ccc(cc1)C[C@@H]3N(C)CC2)N(C)CC4 [BA #12]
IC50 ([2]; 48 hours): 9.2 µM | IC50 [10]: 5.6 µM | IC50 [12]: 3.3 µM

SMILES: COc1cc2c3cc1Oc1c(OC)c(OC)cc4c1[C@@H](Cc1ccc(O)c(c1)Oc1ccc(cc1)C[C@@H]3N(C)CC2)N(C)CC4 [Berbamine]
IC50 ([2]; Homo sapiens, 48 h): 24 µM | IC50 (cancer cell lines): > 20 µM | IC50 [5]: 19.6 µM | IC50 ([6]; Homo sapiens, K562/Adr, 48 h): 8.9 µM | IC50 ([10]; Homo sapiens, DU-145, 48 h): > 20 µM | IC50 ([12]; Homo sapiens): > 20 µM

SMILES: COc1cc2c3cc1Oc1c(OC)c(OC)cc4c1[C@@H](Cc1ccc(OCCCNC(=O)c5cncs5)c(c1)Oc1ccc(cc1)C[C@@H]3N(C)CC2)N(C)CC4 [BA #6]
IC50 [10]: 3.5 µM | IC50 [12]: 3.4 µM

SMILES: COc1cc2c3cc1Oc1c(OC)c(OC)cc4c1[C@@H](Cc1ccc(OCCCNC(=O)c5cncs5)c(c1)Oc1ccc(cc1)C[C@@H]3N(C)CC2)N(C)CC4 [BA #11]
IC50 [10]: 12.3 µM | IC50 [12]: 8.3 µM

Second part, led by results:

IC50 [10]: 15.2 µM | IC50 [12]: 14.6 µM
SMILES: COc1cc2c3cc1Oc1c(OC)c(OC)cc4c1[C@@H](Cc1ccc(OCCCNC(=O)c5cncs5)c(c1)Oc1ccc(cc1)C[C@@H]3N(C)CC2)N(C)CC4 [BA #2]

IC50 [5]: 2.8 µM | IC50 [10]: 3.7 µM | IC50 [12]: 3.4 µM
SMILES: COc1cc2c3cc1Oc1c(OC)c(OC)cc4c1[C@@H](Cc1ccc(OCCCNC(=O)c5cncs5)c(c1)Oc1ccc(cc1)C[C@@H]3N(C)CC2)N(C)CC4 [BA #10]
IC50 ([2]; Homo sapiens, 48 h): 9.4 µM

IC50 ([6]; 48 hours): 3 µM | IC50 [10]: 15.5 µM | IC50 [12]: 14.3 µM
SMILES: COc1cc2c3cc1Oc1c(OC)c(OC)cc4c1[C@@H](Cc1ccc(OCCCNC(=O)c5cncs5)c(c1)Oc1ccc(cc1)C[C@@H]3N(C)CC2)N(C)CC4 [BA #4]

IC50 [10]: 7.7 µM | IC50 [12]: 8.1 µM
SMILES: COc1cc2c3cc1Oc1c(OC)c(OC)cc4c1[C@@H](Cc1ccc(OCCCNC(=O)c5cncs5)c(c1)Oc1ccc(cc1)C[C@@H]3N(C)CC2)N(C)CC4 [BA #9]

IC50 ([10]; Homo sapiens, DU-145, 48 h): > 20 µM | IC50 ([12]; Homo sapiens): > 20 µM
SMILES: O=C1c2ccccc2C(=O)N1CCCOc1ccccc1 [Phthaloyl derivative, reference compound]

IC50 ([6]; 48 hours): 6.4 µM | IC50 [10]: 9.4 µM | IC50 [12]: 7.4 µM
SMILES: COc1cc2c3cc1Oc1c(OC)c(OC)cc4c1[C@@H](Cc1ccc(OCCCNC(=O)c5cncs5)c(c1)Oc1ccc(cc1)C[C@@H]3N(C)CC2)N(C)CC4 [BA #1]

IC50 [10]: 13.6 µM | IC50 [12]: 8.2 µM
SMILES: COc1cc2c3cc1Oc1c(OC)c(OC)cc4c1[C@@H](Cc1ccc(OCCCNC(=O)c5cncs5)c(c1)Oc1ccc(cc1)C[C@@H]3N(C)CC2)N(C)CC4 [BA #13]

IC50 [10]: 6.9 µM | IC50 [12]: 3.5 µM
SMILES: COc1cc2c3cc1Oc1c(OC)c(OC)cc4c1[C@@H](Cc1ccc(OCCCNC(=O)c5cncs5)c(c1)Oc1ccc(cc1)C[C@@H]3N(C)CC2)N(C)CC4 [BA #7]
